{"source": "PubChem BioAssay (NCI)", "assay_in_all_cases": "inhibition of tumour cell growth, NCI panel, 48 h", "key": {"SN12C renal": {"system": "SN12C renal"}, "NCI-H522 lung": {"system": "NCI-H522 lung"}, "OVCAR-8 ovarian": {"system": "OVCAR-8 ovarian"}, "SK-MEL-28 melanoma": {"system": "SK-MEL-28 melanoma"}, "RXF 393 renal": {"system": "RXF 393 renal"}, "LOX IMVI melanoma": {"system": "LOX IMVI melanoma"}, "SK-MEL-5 melanoma": {"system": "SK-MEL-5 melanoma"}, "UACC-257 melanoma": {"system": "UACC-257 melanoma"}, "MDA-MB-231 breast": {"system": "MDA-MB-231 breast"}, "NCI-H226 lung": {"system": "NCI-H226 lung"}}, "note": "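Method: 48-hour compound exposure of cells in 96-well plates, five concentrations, linear interpolation of endpoints. The concentration for full growth arrest is given as TGI.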", "data": [{"compound": "CC1CC(=O)N(N(C)C)C(C#N)(C#N)C1(C#N)C#N", "note": "(stereo not given)", "values": [{"measurement": "TGI", "setting": "SN12C renal", "value": 37, "unit": "µM"}, {"measurement": "TGI", "setting": "NCI-H522 lung", "value": 7.73, "unit": "µM"}, {"measurement": "TGI", "setting": "OVCAR-8 ovarian", "value": 45.2, "unit": "µM"}, {"measurement": "TGI", "setting": "SK-MEL-28 melanoma", "value": 34.3, "unit": "µM"}, {"measurement": "TGI", "setting": "RXF 393 renal", "value": 26.6, "unit": "µM"}, {"measurement": "TGI", "setting": "LOX IMVI melanoma", "value": 42.7, "unit": "µM"}, {"measurement": "TGI", "setting": "SK-MEL-5 melanoma", "value": 47, "unit": "µM"}, {"measurement": "TGI", "setting": "UACC-257 melanoma", "value": 29.8, "unit": "µM"}, {"measurement": "TGI", "setting": "MDA-MB-231 breast", "value": 28.9, "unit": "µM"}, {"measurement": "TGI", "setting": "NCI-H226 lung", "value": 67, "unit": "µM"}]}, {"compound": "CC(=O)N(O)c1ccc(-c2nc3ccccc3s2)cc1", "values": [{"measurement": "TGI", "setting": "SN12C renal", "value": "> 100", "unit": "µM"}, {"measurement": "TGI", "setting": "NCI-H522 lung", "value": 97.2, "unit": "µM"}, {"measurement": "TGI", "setting": "OVCAR-8 ovarian", "value": "> 100", "unit": "µM"}, {"measurement": "TGI", "setting": "SK-MEL-28 melanoma", "value": "> 100", "unit": "µM"}, {"measurement": "TGI", "setting": "RXF 393 renal", "value": "> 100", "unit": "µM"}, {"measurement": "TGI", "setting": "LOX IMVI melanoma", "value": "> 100", "unit": "µM"}, {"measurement": "TGI", "setting": "SK-MEL-5 melanoma", "value": "> 100", "unit": "µM"}, {"measurement": "TGI", "setting": "UACC-257 melanoma", "value": "> 100", "unit": "µM"}, {"measurement": "TGI", "setting": "MDA-MB-231 breast", "value": "> 100", "unit": "µM"}, {"measurement": "TGI", "setting": "NCI-H226 lung", "value": 73.2, "unit": "µM"}]}, {"compound": "COc1cc2nc(-c3cccs3)[nH]c(=O)c2cc1OC", "values": [{"measurement": "TGI", "setting": "SN12C renal", "value": "> 100", "unit": "µM"}, {"measurement": "TGI", "setting": "NCI-H522 lung", "value": "> 100", "unit": "µM"}, {"measurement": "TGI", "setting": "OVCAR-8 ovarian", "value": "> 100", "unit": "µM"}, {"measurement": "TGI", "setting": "SK-MEL-28 melanoma", "value": "> 100", "unit": "µM"}, {"measurement": "TGI", "setting": "RXF 393 renal", "value": "> 100", "unit": "µM"}, {"measurement": "TGI", "setting": "LOX IMVI melanoma", "value": "> 100", "unit": "µM"}, {"measurement": "TGI", "setting": "SK-MEL-5 melanoma", "value": "> 100", "unit": "µM"}, {"measurement": "TGI", "setting": "UACC-257 melanoma", "value": "> 100", "unit": "µM"}, {"measurement": "TGI", "setting": "MDA-MB-231 breast", "value": "> 100", "unit": "µM"}, {"measurement": "TGI", "setting": "NCI-H226 lung", "value": "> 100", "unit": "µM"}]}, {"compound": "NC(Cc1ccc(S(=O)(=O)O)cc1)C(=O)NC(Cc1ccc(S(=O)(=O)O)cc1)C(=O)O", "note": "(stereo not given)", "values": [{"measurement": "TGI", "setting": "SN12C renal", "value": "> 100", "unit": "µM"}, {"measurement": "TGI", "setting": "NCI-H522 lung", "value": "> 100", "unit": "µM"}, {"measurement": "TGI", "setting": "OVCAR-8 ovarian", "value": "> 100", "unit": "µM"}, {"measurement": "TGI", "setting": "SK-MEL-28 melanoma", "value": "> 100", "unit": "µM"}, {"measurement": "TGI", "setting": "RXF 393 renal", "value": "> 100", "unit": "µM"}, {"measurement": "TGI", "setting": "LOX IMVI melanoma", "value": "> 100", "unit": "µM"}, {"measurement": "TGI", "setting": "SK-MEL-5 melanoma", "value": "> 100", "unit": "µM"}, {"measurement": "TGI", "setting": "UACC-257 melanoma", "value": "> 100", "unit": "µM"}, {"measurement": "TGI", "setting": "MDA-MB-231 breast", "value": "> 100", "unit": "µM"}, {"measurement": "TGI", "setting": "NCI-H226 lung", "value": "> 100", "unit": "µM"}]}, {"compound": "S=C(Nc1ccc2cn[nH]c2c1)Nc1ccc2cn[nH]c2c1", "values": [{"measurement": "TGI", "setting": "SN12C renal", "value": "> 100", "unit": "µM"}, {"measurement": "TGI", "setting": "NCI-H522 lung", "value": "> 100", "unit": "µM"}, {"measurement": "TGI", "setting": "OVCAR-8 ovarian", "value": "> 100", "unit": "µM"}, {"measurement": "TGI", "setting": "SK-MEL-28 melanoma", "value": "> 100", "unit": "µM"}, {"measurement": "TGI", "setting": "RXF 393 renal", "value": "> 100", "unit": "µM"}, {"measurement": "TGI", "setting": "LOX IMVI melanoma", "value": "> 100", "unit": "µM"}, {"measurement": "TGI", "setting": "SK-MEL-5 melanoma", "value": "> 100", "unit": "µM"}, {"measurement": "TGI", "setting": "UACC-257 melanoma", "value": "> 100", "unit": "µM"}, {"measurement": "TGI", "setting": "MDA-MB-231 breast", "value": "> 100", "unit": "µM"}, {"measurement": "TGI", "setting": "NCI-H226 lung", "value": "> 100", "unit": "µM"}]}, {"compound": "C/C1=C\\C=C(\\C(C)C)CC/C(C(=O)O)=C\\CC/C(C)=C/CC1", "values": [{"measurement": "TGI", "setting": "SN12C renal", "value": 45.9, "unit": "µM"}, {"measurement": "TGI", "setting": "NCI-H522 lung", "value": 39.5, "unit": "µM"}, {"measurement": "TGI", "setting": "OVCAR-8 ovarian", "value": "> 100", "unit": "µM"}, {"measurement": "TGI", "setting": "SK-MEL-28 melanoma", "value": 56.3, "unit": "µM"}, {"measurement": "TGI", "setting": "RXF 393 renal", "value": 41.4, "unit": "µM"}, {"measurement": "TGI", "setting": "LOX IMVI melanoma", "value": 49.5, "unit": "µM"}, {"measurement": "TGI", "setting": "SK-MEL-5 melanoma", "value": 34.7, "unit": "µM"}, {"measurement": "TGI", "setting": "UACC-257 melanoma", "value": 56.1, "unit": "µM"}, {"measurement": "TGI", "setting": "MDA-MB-231 breast", "value": 39.2, "unit": "µM"}, {"measurement": "TGI", "setting": "NCI-H226 lung", "value": 43.3, "unit": "µM"}]}, {"compound": "COc1cc(N(Cc2ccc3oc(=O)c(-c4ccccc4)nc3c2)Cc2ccc3oc(=O)c(-c4ccccc4)nc3c2)cc(OC)c1OC", "values": [{"measurement": "TGI", "setting": "SN12C renal", "value": "> 10", "unit": "µM"}, {"measurement": "TGI", "setting": "NCI-H522 lung", "value": "> 10", "unit": "µM"}, {"measurement": "TGI", "setting": "OVCAR-8 ovarian", "value": "> 10", "unit": "µM"}, {"measurement": "TGI", "setting": "SK-MEL-28 melanoma", "value": "> 10", "unit": "µM"}, {"measurement": "TGI", "setting": "RXF 393 renal", "value": "> 10", "unit": "µM"}, {"measurement": "TGI", "setting": "LOX IMVI melanoma", "value": "> 10", "unit": "µM"}, {"measurement": "TGI", "setting": "SK-MEL-5 melanoma", "value": "> 10", "unit": "µM"}, {"measurement": "TGI", "setting": "UACC-257 melanoma", "value": "> 10", "unit": "µM"}, {"measurement": "TGI", "setting": "MDA-MB-231 breast", "value": "> 10", "unit": "µM"}, {"measurement": "TGI", "setting": "NCI-H226 lung", "value": "> 10", "unit": "µM"}]}, {"compound": "COc1cc(C2c3cc4c(cc3OC(N3CCNCC3)C2C)OCO4)cc(OC)c1OC", "note": "(stereo not given)", "values": [{"measurement": "TGI", "setting": "SN12C renal", "value": "> 53.2", "unit": "µM"}, {"measurement": "TGI", "setting": "NCI-H522 lung", "value": 8.32, "unit": "µM"}, {"measurement": "TGI", "setting": "OVCAR-8 ovarian", "value": "> 37.8", "unit": "µM"}, {"measurement": "TGI", "setting": "SK-MEL-28 melanoma", "value": 38.6, "unit": "µM"}, {"measurement": "TGI", "setting": "RXF 393 renal", "value": 0.99, "unit": "µM"}, {"measurement": "TGI", "setting": "LOX IMVI melanoma", "value": 19, "unit": "µM"}, {"measurement": "TGI", "setting": "SK-MEL-5 melanoma", "value": 4.03, "unit": "µM"}, {"measurement": "TGI", "setting": "UACC-257 melanoma", "value": "> 47.9", "unit": "µM"}, {"measurement": "TGI", "setting": "MDA-MB-231 breast", "value": 2.46, "unit": "µM"}, {"measurement": "TGI", "setting": "NCI-H226 lung", "value": 8.78, "unit": "µM"}]}, {"compound": "CN(C)c1cccc(NC2=NCCO2)c1", "values": [{"measurement": "TGI", "setting": "SN12C renal", "value": "> 100", "unit": "µM"}, {"measurement": "TGI", "setting": "NCI-H522 lung", "value": "> 100", "unit": "µM"}, {"measurement": "TGI", "setting": "OVCAR-8 ovarian", "value": "> 100", "unit": "µM"}, {"measurement": "TGI", "setting": "SK-MEL-28 melanoma", "value": "> 100", "unit": "µM"}, {"measurement": "TGI", "setting": "RXF 393 renal", "value": "> 100", "unit": "µM"}, {"measurement": "TGI", "setting": "LOX IMVI melanoma", "value": "> 100", "unit": "µM"}, {"measurement": "TGI", "setting": "SK-MEL-5 melanoma", "value": "> 100", "unit": "µM"}, {"measurement": "TGI", "setting": "UACC-257 melanoma", "value": "> 100", "unit": "µM"}, {"measurement": "TGI", "setting": "MDA-MB-231 breast", "value": "> 100", "unit": "µM"}, {"measurement": "TGI", "setting": "NCI-H226 lung", "value": "> 100", "unit": "µM"}]}, {"compound": "CCOc1cc(NC(C)=O)ccc1C(=O)NN1C(=O)CSC1c1ccccc1", "note": "(stereo not given)", "values": [{"measurement": "TGI", "setting": "SN12C renal", "value": "> 100", "unit": "µM"}, {"measurement": "TGI", "setting": "NCI-H522 lung", "value": "> 100", "unit": "µM"}, {"measurement": "TGI", "setting": "OVCAR-8 ovarian", "value": "> 100", "unit": "µM"}, {"measurement": "TGI", "setting": "SK-MEL-28 melanoma", "value": "> 100", "unit": "µM"}, {"measurement": "TGI", "setting": "RXF 393 renal", "value": "> 100", "unit": "µM"}, {"measurement": "TGI", "setting": "LOX IMVI melanoma", "value": "> 100", "unit": "µM"}, {"measurement": "TGI", "setting": "SK-MEL-5 melanoma", "value": "> 100", "unit": "µM"}, {"measurement": "TGI", "setting": "UACC-257 melanoma", "value": "> 100", "unit": "µM"}, {"measurement": "TGI", "setting": "MDA-MB-231 breast", "value": "> 100", "unit": "µM"}, {"measurement": "TGI", "setting": "NCI-H226 lung", "value": "> 100", "unit": "µM"}]}]}
